Reference: US8324280B2, “Treatment of prostate cancer with DDC inhibitor” (The University of British Columbia, priority 2008, dated 2012)

Assays:
[1] = system: parental LNCaP xenografts; assay: Parental LNCaP tumour xenografts in castrated mice, progression to androgen-independence; type: in vivo
Method: Parental LNCaP cells were inoculated subcutaneously (s.c.), after resuspension in 0.1 mL of Matrigel (Becton Dickinson Labware), into two flank regions (2.5×10^6 cells/site) of 6 to 8 week old male athymic nude mice (Harlan Sprague Dawley, Inc.) via a 27-gauge needle under halothane anesthesia. Tumour volume and serum PSA measurements (blood collected from the tail vein) were performed once per week after tumours became palpable. PSA levels were measured by ELISA (ClinPro International) and tumour size was calculated by the formula; length×width×depth×0.5236. Once serum PSA values reached 75-100 ng/mL, mice were castrated and treated with or without carbidopa. Carbidopa was purchased from Sigma and dissolved in DMSO. The solution was diluted in PBS to a final concentration of 10% DMSO and sterilized through a 0.2 μm filter. Carbidopa solution was injected intraperitoneally into half of the mice (25 mg per kg of body weight) for the +carbidopa group, while the remaining mice received vehicle injections consisting of 10% DMSO in PBS (−carbidopa group). Injections were carried out daily for the duration of the experiment. Each animal group contained 5-6 mice. Serum PSA and tumour volume values were measured with progression to androgen-independence and normalized to pretreatment values (set at 100%) to obtain the mean percentage PSA and mean tumour volume of pre-treatment (±SEM). All animal procedures were performed according to the guidelines of the Canadian Council of Animal Care and with appropriate institutional certification. Statistical analysis was performed using the Student's t-test (two-sample equal variance) with JMPIN statistical software (Version 4.0.2, SAS Institute Inc.).

[2] = system: LNCaP-Vector control xenografts; assay: LNCaP-Vector control tumour xenografts with carbidopa treatment; type: in vivo, mice; conditions: 25 mg/kg intraperitoneally daily, Dox, endogenous DDC only
Method: LNCaP-DDC and LNCaP-Vector control cells were inoculated subcutaneously (s.c.), after resuspension in 0.1 mL of Matrigel (Becton Dickinson Labware), into two flank regions (2.5×10^6 cells/site) of 6 to 8 week old male athymic nude mice (Harlan Sprague Dawley, Inc.) via a 27-gauge needle under halothane anesthesia. Tumour volume and serum PSA measurements (blood collected from the tail vein) were performed once per week after tumours became palpable. PSA levels were measured by ELISA (ClinPro International) and tumour size was calculated by the formula; length×width×depth×0.5236. Once serum PSA values reached 75-100 ng/mL, mice in both the LNCaP-DDC and LNCaP-Vector control groups were given Dox-treated water (200 μg/mL) and treated with or without carbidopa. Carbidopa was purchased from Sigma and dissolved in DMSO. The solution was diluted in PBS to a final concentration of 10% DMSO and sterilized through a 0.2 μm filter. Carbidopa solution was injected intraperitoneally into half of the mice (25 mg per kg of body weight) for the +carbidopa groups, while the remaining mice received vehicle injections consisting of 10% DMSO in PBS (−carbidopa groups). Injections were carried out daily for the duration of the experiment. […] PSA velocity and tumour growth rate differences were determined by one-way ANOVA and Tukey's multiple comparison test. […]

## C[C@@](Cc1ccc(O)c(O)c1)(NN)C(=O)O [carbidopa, α-Methyl-dopahydrazine]
[1]; 11 weeks
  decrease in PSA level with treatment versus control group: 4.3 fold
  decrease in tumour growth versus control group: 5.4 fold
[1]; castrated mice, 25 mg/kg i.p. daily, 11 weeks
  tumour volume, of pre-treatment: 478±97%
[1]; castrated mice, 25 mg/kg i.p. daily, 11 weeks (termination)
  serum PSA level, of pre-treatment: 167±36%
[1]; castrated mice, 25 mg/kg i.p. daily, week 1
  serum PSA level, of pre-treatment: 38±5%
[1]; castrated mice, 25 mg/kg i.p. daily, week 10
  serum PSA level, of pre-treatment: 148±34%
[1]; over 11 weeks
  increase of tumour volume from pre-treatment volume: about 5 fold
[2]; over 35 days
  PSA velocity (rate of PSA production): 7.2±1
[2]; over 49 days
  tumour growth rate: 9.8±2
